Patent US12569502B2, “Use of bile acids and derivatives thereof in preparation of GPR39 agonist” (PEKING UNIVERSITY, priority 2019, dated 2026)
Read-outs that look alike come from different tables or passages of the source.

Target: T1, GPR39 receptors on m39-20 cell lines (Mus musculus, UniProt Q5U431, T447P)
T1 construct: P2A-mCherry (C); expressed in transfected cells
T1 sequence (Q5U431 1-456 T447P): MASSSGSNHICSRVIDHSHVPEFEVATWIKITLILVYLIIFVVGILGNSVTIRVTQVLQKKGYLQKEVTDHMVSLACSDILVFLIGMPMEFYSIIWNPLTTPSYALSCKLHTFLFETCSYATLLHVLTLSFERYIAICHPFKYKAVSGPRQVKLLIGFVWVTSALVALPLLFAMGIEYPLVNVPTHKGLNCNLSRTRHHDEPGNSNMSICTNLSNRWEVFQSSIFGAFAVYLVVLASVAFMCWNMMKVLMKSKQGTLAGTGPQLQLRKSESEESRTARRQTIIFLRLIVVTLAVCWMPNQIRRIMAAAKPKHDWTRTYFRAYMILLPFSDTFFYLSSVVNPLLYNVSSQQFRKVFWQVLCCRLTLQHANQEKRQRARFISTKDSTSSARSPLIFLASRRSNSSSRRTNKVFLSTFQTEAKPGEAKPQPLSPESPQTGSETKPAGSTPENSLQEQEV
Assay: FLIPR calcium imaging on m39-20 cell lines stably expressing murine-derived GPR39
Type: cell-based
Details: for Bile acid + 4 μM zinc ions Efficacy / Only bile acid Efficacy: activation efficacy; for intracellular calcium signals in m39-20 cell lines: FIG. 1; for change of activation efficacy after the addition of zinc ions: Table 1, FIG. 2
From the text: Intracellular calcium imaging is a routine technique to study cell functions, the basic principle of which is to detect the concentration of the calcium ion in tissues or cells using a calcium indicator, thereby reflecting certain reactions in the tissues or cells. In the present application, the intracellular calcium released from a cell line that stably or transiently expresses GPR39 is detected using Fluo8-AM, a calcium fluorescent indicator, so as to determine the activation of the GPR39 receptor by the bile acid and derivative thereof.
HEK293T cells (purchased from ATCC) were seeded in a 6-well plate (coming Co.) at an appropriate density (about 0.5-2×10^5/well). When the cell density reached above 30%, the plasmid PLVXK-mGPR39-P2A-mCherry was transfected with Lipofectamine 3000 (Invitrogen) at a concentration of 2 μg per well. The cells were passaged 24 hours after transfection, the puromycin (gibco) was added into the medium at a concentration of 2 μg/mL for antibiotic screening of cells. After 2-4 days of continuous screening, the cells screened for puromycin resistance were trypsinized and screened by flow cytometry for monoclones with red fluorescence. And these monoclones were seeded in a 96-well plate and cultured in a medium without puromycin for around 10 days. Cell colonies with red fluorescence were sorted under a fluorescence microscope, trypsinized and then passaged and expanded in a 6-well plate. Cell lines m39-20 stably expressing murine-derived GPR39 were obtained through the above methods.
Calcium dye Fluo8-AM (ATT bioquest Co.) was dissolved in DMSO solvent to formulate a stock solution of 1 μg/μL. […] After then, the calcium dye working solution was replaced with the 4K solution (50 μL per well), and acclimated for 5 min at room temperature for the subsequent calcium imaging experiment.
Bile acids and derivatives thereof as listed in Table 1 below were dissolved in dimethyl sulfoxide (DMSO, Sigma Co.) solvent to formulate a stock solution of 50 mM, which was stored at −20° C. During calcium imaging with FLIPR, the drug was diluted with the above 4K solution into a working concentration of 400 μM, and packaged into another 96-well plate. […] The instrument parameters were set so that 50 μL of the drug solution may be added into the culture wells within 2 s. The fluorescence recording result within the first 30 seconds was used as the baseline value. The FLIPR robot arm was programmed to automatically add bile acids and derivatives thereof into the cell sample culture wells at the 31st second. 1% of DMSO solvent was used as the blank control.
After that, the calcium dye working solution was replaced with a 4K solution containing 4 μM zinc ions (50 μL per well), followed by acclimation for 5 min at room temperature.

[1] = Bile acid + 4 μM zinc ions EC50, m39-20 cells, 4 μM zinc ions
[2] = m39-20 cells, no zinc ions, read-out: Only bile acid EC50
[3] = Only bile acid EC50, m39-20 cells, no zinc ions
[4] = m39-20 cells, no zinc ions, read-out: EC50 Only agonist

Compound | EC50 [1] [µM] | Bile acid + 4 μM zinc ions Efficacy (m39-20 cells, 4 μM zinc ions) [%] | Only bile acid Efficacy (m39-20 cells, no zinc ions) [%] | EC50 [2] [µM] | intracellular calcium signals in m39-20 cell lines | change of activation efficacy after the addition of zinc ions (m39-20 cells) | EC50 [3] [µM] | EC50 (EC50 Agonist + 4 μM zinc ions, m39-20 cells, 4 μM zinc ions) [µM] | EC50 [4] [µM] | EC50 (read-out: EC50 Agonist + 4 μM zinc ions, m39-20 cells, 4 μM zinc ions) [µM]
C[C@H](CCC(=O)O)[C@H]1CC[C@H]2[C@@H]3[C@H](O)C[C@@H]4C[C@H](O)CC[C@]4(C)[C@H]3C[C@H](O)[C@]12C [CA, Cholic acid] | 49.2 ± 3.3 | 99.3 ± 2.1 | 0 | > 200 | – | – | – | – | – | –
C[C@H](CCC(=O)O)[C@H]1CC[C@H]2[C@@H]3CC[C@@H]4C[C@H](OS(=O)(=O)O)CC[C@]4(C)[C@H]3C[C@H](O)[C@]12C [DCAS] | 37.8 ± 1 | 81.9 ± 2.2 | 0 | > 200 | varying extents of intracellular calcium signals | obviously improved | – | – | – | –
C[C@H](CCC(=O)NCC(=O)O)[C@H]1CC[C@H]2[C@@H]3[C@H](O)C[C@@H]4C[C@H](O)CC[C@]4(C)[C@H]3C[C@H](O)[C@]12C [GCA] | > 100 | 20 ± 2.7 | 0 | > 200 | varying extents of intracellular calcium signals | obviously improved | – | – | – | –
C[C@H](CCC(=O)NCC(=O)O)[C@H]1CC[C@H]2[C@@H]3[C@H](O)C[C@@H]4C[C@H](OS(=O)(=O)O)CC[C@]4(C)[C@H]3CC[C@]12C [GCDCAS] | > 100 | 58.6 ± 2 | 0 | > 200 | varying extents of intracellular calcium signals | obviously improved | – | – | – | –
C[C@H](CCC(=O)NCC(=O)O)[C@H]1CC[C@H]2[C@@H]3[C@H](O)C[C@@H]4C[C@H](O)CC[C@]4(C)[C@H]3CC[C@]12C [GCDCA] | 80.6 ± 3.6 | 91.2 ± 4.4 | 16.5 ± 2.4 | > 200 | varying extents of intracellular calcium signals | obviously improved | – | – | – | –
C[C@H](CCC(=O)NCC(=O)O)[C@H]1CC[C@H]2[C@@H]3CC[C@@H]4C[C@H](OS(=O)(=O)O)CC[C@]4(C)[C@H]3C[C@H](O)[C@]12C [GDCAS] | > 100 | 58.5 ± 4.8 | 0 | > 200 | varying extents of intracellular calcium signals | obviously improved | – | – | – | –
C[C@H](CCC(=O)NCC(=O)O)[C@H]1CC[C@H]2[C@@H]3CC[C@@H]4C[C@H](O)CC[C@]4(C)[C@H]3C[C@H](O)[C@]12C [GDCA] | 46 ± 10.3 | 86.4 ± 6.3 | 7.7 ± 1.7 | > 200 | varying extents of intracellular calcium signals | obviously improved | – | – | – | –
C[C@H](CCC(=O)NCC(=O)O)[C@H]1CC[C@H]2[C@@H]3CC[C@@H]4C[C@H](O)CC[C@]4(C)[C@H]3CC[C@]12C [GLCA] | 13.5 ± 3.4 | 74 ± 4.1 | 0 | – | varying extents of intracellular calcium signals | obviously improved | > 200 | – | – | –
C[C@H](CCC(=O)NCC(=O)O)[C@H]1CC[C@H]2[C@@H]3[C@@H](O)C[C@@H]4C[C@H](O)CC[C@]4(C)[C@H]3CC[C@]12C [GUDCA] | > 100 | 35.3 ± 6.8 | 0 | > 200 | varying extents of intracellular calcium signals | obviously improved | – | – | – | –
C[C@H](CCC(=O)O)[C@H]1CC[C@H]2[C@@H]3CC[C@@H]4C[C@H](O)CC[C@]4(C)[C@H]3CC[C@]12C [LCA, Lithocholic acid] | > 100 | 1.3 ± 1.1 | 0 | > 200 | – | – | – | – | – | –
C[C@H](CCC(=O)NCCS(=O)(=O)O)[C@H]1CC[C@H]2[C@@H]3[C@H](O)C[C@@H]4C[C@H](O)CC[C@]4(C)[C@H]3C[C@H](O)[C@]12C [TCA] | > 100 | 31.8 ± 3 | 0 | – | varying extents of intracellular calcium signals | obviously improved | > 200 | – | – | –
C[C@H](CCC(=O)NCCS(=O)(=O)O)[C@H]1CC[C@H]2[C@@H]3[C@H](O)C[C@@H]4C[C@H](OS(=O)(=O)O)CC[C@]4(C)[C@H]3CC[C@]12C [TCDCAS] | > 100 | 39.7 ± 3.3 | 0 | > 200 | varying extents of intracellular calcium signals | obviously improved | – | – | – | –
C[C@H](CCC(=O)NCCS(=O)(=O)O)[C@H]1CC[C@H]2[C@@H]3CC[C@@H]4C[C@H](OS(=O)(=O)O)CC[C@]4(C)[C@H]3C[C@H](O)[C@]12C [TDCAS] | > 100 | 60.1 ± 5.5 | 0 | > 200 | varying extents of intracellular calcium signals | obviously improved | – | – | – | –
C[C@H](CCC(=O)NCCS(=O)(=O)O)[C@H]1CC[C@H]2[C@@H]3CC[C@@H]4C[C@H](O)CC[C@]4(C)[C@H]3C[C@H](O)[C@]12C [TDCA] | 27.6 ± 7.1 | 99.3 ± 1.7 | 22.8 ± 3 | > 200 | varying extents of intracellular calcium signals | obviously improved | – | – | – | –
CNc1nc(NCc2ccc(NS(C)(=O)=O)cc2Cl)cc(-c2ccccn2)n1 [TG-G 1008, reference compound] | – | – | – | – | – | – | – | 1.5 | 39 | –
C[C@H](CCC(=O)NCCS(=O)(=O)O)[C@H]1CC[C@H]2[C@@H]3CC[C@@H]4C[C@H](O)CC[C@]4(C)[C@H]3CC[C@]12C [TLCA] | 8.1 ± 2.4 | 103.5 ± 1.1 | 47.8 ± 1.1 | 44 ± 10 | varying extents of intracellular calcium signals | – | – | – | – | –
CCCCCCCCC=CCCCCCCCC(=O)OCC(CO)OC(=O)CCCCCCCC=CCCCCCCCC (stereo not drawn) [TM-N 1324, reference compound] | – | – | – | – | – | – | – | – | 42.9 | 3.5
C[C@H](CCC(=O)NCCS(=O)(=O)O)[C@H]1CC[C@H]2[C@@H]3[C@@H](O)C[C@@H]4C[C@H](OS(=O)(=O)O)CC[C@]4(C)[C@H]3CC[C@]12C [TUDCAS] | > 100 | 31.4 ± 3.2 | 0 | > 200 | varying extents of intracellular calcium signals | obviously improved | – | – | – | –
C[C@H](CCC(=O)O)[C@H]1CC[C@H]2[C@@H]3[C@@H](O)C[C@@H]4C[C@H](O)CC[C@]4(C)[C@H]3CC[C@]12C [UDCA, Ursodeoxycholic acid] | > 100 | 58.5 ± 4 | 0 | > 200 | – | – | – | – | – | –
